Results reported in patent US20170354148A1, “SAFENED HERBICIDAL COMPOSITIONS CONTAINING HALAUXIFEN AND METHODS OF USE THEREOF IN BRASSICA SPECIES” (Dow AgroSciences LLC, priority 2016, published 2017).

Columns and labels:
Conditions in all cases: in vivo
[1] = system: winter oilseed rape (Brassica napus, BRSNW)
[2] = system: Roundup Ready® canola (Brassica napus, RR-BRSNN)
[3] = system: Nexera™ canola (Brassica napus, BRSNN-NEX)
[4] = system: turnip or Polish canola (Brassica rapa, BRSRR)
[5] = system: rutabaga (Brassica napus var. napobrassica, BRSNA)
[6] = system: kale/Chinese kale (Brassica alboglabra, BRSAG)

CCCCCC(C)OC(=O)COc1ccc(Cl)c2cccnc12 (stereo not drawn) [Cloquintocet-mexyl, 1-methylhexyl (5-chloroquinolin-8-yloxy)acetate]
0%: Percent (%) Visual Injury BRSNW Obs [1] | Percent (%) Visual Injury RR-BRSNN Obs [2] | Percent (%) Visual Injury BRSNN-NEX Obs [3] | Percent (%) Visual Injury BRSRR Obs [4] | Percent (%) Visual Injury BRSNA Obs [5] | Percent (%) Visual Injury BRSAG Obs [6]
